Results taken from US11319300B2, “Polyfluoro-substituted aromatic heterocyclic derivative, pharmaceutical composition containing same, and applications thereof” (ZHEJIANG UNIVERSITY, priority 2017, dated 2022).

Tests used:
[1] = system: HGC27; experiment: Tumour cell proliferation inhibition, MTT assay, HGC27; format: cell-based, human; conditions: Homo sapiens, HGC-27, 72 h
[2] = target: T1, AKT1/PKBα (Homo sapiens, UniProt P31749); experiment: Akt1 enzyme inhibitory activity, AKT1/PKBα KinEASE FP Fluorescein Green Assay; format: biochemical; conditions: fluorescence polarization kit assay; read-out: Akt1 IC50 (grade)
T1 construct: purchased
Procedure: Compound AZD5363 (NCT02208375, NCT02208375, NCT01625286), which have entered the clinical phase II study, was used as a positive control, and the compound was assayed against common tumour cell lines (human ovarian cancer cell line OVCAR-8 and human colon cancer cell line HCT-116) by MTT assay, at the same time, the akt1 enzyme inhibitory activity (IC50) was evaluated using a commercial Akt1 kit.
2) Test method for the inhibitory activity of the compound of the present invention against Akt1 enzyme:
The AKT1/PKBα KinEASE™ FP Fluorescein Green Assay (Kinase Green Fluorescence Detection System) was used to detect the inhibitory activity of the compound on AKT1/PKBα.
Fluorescence polarization detection protein kinase B employs the principle of a competitive reaction: a fluorescently labeled phosphorylated tracer and an unlabeled phosphorylated product produced by the reaction of protein kinase B will compete with the anti-serine antibody for binding. In a reaction mixture […], when a part of the fluorescent tracer binds to the antibody, it causes a higher polarization value. However, in the reaction solution mixture containing the phosphorylated product, less tracer binds to the antibody (the fluorescent tracer was replaced from the antibody) and the emitted signal was depolarized. Therefore, the change in polarization was directly related to the activity of protein kinase B in the reaction.
The compound of the present invention and the positive control AZD5363 were dissolved in dimethyl sulfoxide (DMSO) and diluted to a concentration of 50 μM. At room temperature, 0.25 μl of the compound sample and the positive control at a concentration of 50 μM were taken and added to the 384-well plate, and three parallel wells were set for each sample, and then 10 μl of STK Substrate 3, Working Solution, 5 μl AKT1/PKBα Working Solution, 10 μl ATP Working Solution were added to each sample well plate with vibrating gently and shaking for a few minutes. The reaction starts after 10 μl of ATP Working Solution was added to the well, and the reaction was timed at room temperature for 1 hour. After one hour, 5 μl of STK Stop Mix and 5 μl of STK Antibody Mix were added to each well respectively to stop the reaction. After the addition completes, it was allowed to stand at room temperature for four hours, and the polarization value of the sample was detected by the fluorescence polarization of the microplate reader (it was effective to detect its signal within 24 hours), and the inhibition rate of the compound was calculated by the polarization value, and then IC50 was calculated.
Four sets of controls were set in the experiment, namely Buffer Control Wells, Tracer Control Wells, No Enzyme Wells, and a blank dimethyl sulfoxide control. The resulting data was used to calculate the inhibition rate.
The activity of the compound was divided into three grades according to the size of the IC50 of the Akt inhibitory activity: “+++”, 1 nM<IC50<10 nM; “++”, 10 nM<IC50<50 nM; “+”, 50 nM<IC50.

[3] = target: Akt3 (Homo sapiens, UniProt Q9Y243); experiment: Kinase selectivity assay (Caliper), Akt3; format: biochemical; conditions: Akt3 versus Akt1
Procedure: (§1) A Sixty-Second Embodiment: Kinase Selectivity Assay Test Compound Configuration 1) DMSO was configured with 50× compound stock solution for use. 2) Each compound was diluted in a 96-well plate at a concentration gradient of 5 to 7 to ensure a drug volume of 10 μl per well, to 6 to 7 concentrations, while 100 μl of DMSO was added as a blank control group, and a negative control group without an enzyme substrate was added. 3) Another 96-well plate was prepared, and 10 μl of the above compound was added to 90 μl of 1×kinase base buffer and mixed for 10 min. The board to be tested was prepared: 1) Take a mixture of 5 μl to 384-well plates in a 96-well plate of the above configuration, and per compound has two replicate wells. Kinase Reaction: 1) Configurate a 2.5×kinase solution and add the corresponding 1×kinase base buffer; 2) Configurate a 2.5× polypeptide solution, add a FAM-labeled polypeptide and ATP in a 1×kinase base buffer; 3) 10 μl of 2.5× kinase solution was added to the 384-well plate to be tested, put at room temperature for 10 min, then 10 μl of 2.5× polypeptide solution was added, and after reacting at 28° C. for 1 h, 25 μl of reaction stop buffer was added. The Caliper program reads the plate and uses the data to obtain the IC50 value of the corresponding compound inhibiting kinase. […]

[4] = system: CEM-C1; experiment: Tumour cell proliferation inhibition, MTT assay, CEM-C1; format: cell-based, human; conditions: Homo sapiens, CEM/C1, 72 h
[5] = target: PKA (Homo sapiens, UniProt P17612); experiment: Kinase selectivity assay (Caliper), PKA; format: biochemical; conditions: PKA versus Akt1
Procedure: as §1

[6] = target: Akt2 (Homo sapiens, UniProt P31751); experiment: Kinase selectivity assay (Caliper), Akt2; format: biochemical; conditions: Akt2 versus Akt1
Procedure: as §1

[7] = system: PKC; experiment: Kinase selectivity assay (Caliper), PKC; format: biochemical; conditions: PKC versus Akt1
Procedure: as §1

[8] = target: T2, hERG potassium channel (Homo sapiens, UniProt Q12809); experiment: hERG potassium channel inhibition, manual whole-cell patch clamp in CHO hERG cells; format: cell-based; conditions: 3 μM, CHO hERG cells, patch clamp
T2 construct: host or cells: CHO
Procedure: A Sixty-Third Embodiment: hERG Potassium Channel Inhibition Activity Experiment
The cells used in this assay were CHO cell lines transfected with hERG cDNA and stably expressing the hERG channel (supplied by Sophion Bioscience, Denmark). The cells were cultured in medium containing the following components (all from Invitrogen): Ham's F12 medium, 10% (v/v) inactivated fetal bovine serum, 100 μg/ml hygromycin B, and 100 μg/ml Geneticin. 2.1.2CHO hERG cells were grown in a Petri dish containing the above culture solution, and cultured in an incubator containing 5% of CO2 at 37° C. 24 to 48 hours prior to electrophysiological experiments, CHO hERG cells were transferred to circular glass slides placed in petri dishes and grown under the same culture and culture conditions as above. The density of CHO hERG cells on each circular slide requires that most cells achieve independent, individual requirements.
2. Compound Treatment and Dilution
To obtain the IC50 of the compound, we selecte the following concentrations (30, 10, 3, 1, 0.3, and 0.1 μM) for testing. Prior to testing, the […] were first diluted to 10, 3, 1, 0.3, and 0.1 mM stock solution in gradual dilution with DMSO and then diluted to the final μM test concentration with extracellular fluid. The final concentration of DMSO in each of the other compound solutions was 0.1% except that the DMSO concentration in the 30 μM compound test solution was 0.3%. The positive control Cisapride (cishabili) was tested at a concentration of 0.1 μM. All compound solutions were sonicated and shaken for 5 to 10 minutes to ensure complete dissolution of the compound.
3. Electrophysiological Recording System and Data Analysis
This experiment uses a manual patch clamp system (HEKA EPC-10 signal amplifier and digital conversion system, purchased from HEKA Electronics, Germany) for the recording of whole cell currents. Round slide with CHO hERG cells on the surface was placed in an electrophysiology recording cell under an inverted microscope. The extracellular fluid was continuously perfused in the recording tank (about 1 ml per minute). The experimental procedure uses conventional whole-cell patch clamp current recording techniques. Unless otherwise stated, the experiments were carried out at regular room temperature (˜25° C.). The cells were clamped at a voltage of −80 mV. The cell clamp voltage was depolarized to +20 mV to activate the hERG potassium channel, and after 5 seconds it was clamped to −50 mV to eliminate inactivation and generate tail current. The tail current peak was used as the value of the hERG current magnitude. After the hERG potassium current recorded in the above step was stabilized under the continuous extracellular fluid perfusion in the recording tank, the drug to be tested can be superimposed and filled until the inhibitory effect of the drug on the hERG current reaches a steady state. Generally, the recent three consecutive current recording lines were recombined as a criterion for judging whether or not the state is stable. After reaching a steady state, extracellular fluid perfusion rinse until hERG current returns to the size before adding drug. One cell can test one or more drugs, or multiple concentrations of the same drug, but need to be flushed with extracellular fluid between different drugs. Cisapride (cisapride, purchased from Sigma) was used in the experiment as a positive control to ensure that the cells used were of normal quality. The test data was analysed by HEKA Patchmaster, Microsoft Excel and data analysis software provided by Graphpad Prism.

Chain of Akt3 (Q9Y243 whole entry): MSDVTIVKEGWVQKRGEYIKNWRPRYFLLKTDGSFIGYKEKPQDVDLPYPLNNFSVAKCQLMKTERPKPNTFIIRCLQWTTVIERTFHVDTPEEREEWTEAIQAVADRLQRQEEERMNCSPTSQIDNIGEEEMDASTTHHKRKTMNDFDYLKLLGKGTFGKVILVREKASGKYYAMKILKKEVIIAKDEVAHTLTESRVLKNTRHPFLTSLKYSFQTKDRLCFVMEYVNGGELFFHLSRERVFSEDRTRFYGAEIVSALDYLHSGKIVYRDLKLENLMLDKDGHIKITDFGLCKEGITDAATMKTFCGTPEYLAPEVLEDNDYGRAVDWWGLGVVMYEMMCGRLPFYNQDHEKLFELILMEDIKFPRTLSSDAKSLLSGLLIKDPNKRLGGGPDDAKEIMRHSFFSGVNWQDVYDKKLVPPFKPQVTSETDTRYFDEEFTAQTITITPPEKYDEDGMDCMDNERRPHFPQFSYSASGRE
T1 sequence (P31749 whole entry): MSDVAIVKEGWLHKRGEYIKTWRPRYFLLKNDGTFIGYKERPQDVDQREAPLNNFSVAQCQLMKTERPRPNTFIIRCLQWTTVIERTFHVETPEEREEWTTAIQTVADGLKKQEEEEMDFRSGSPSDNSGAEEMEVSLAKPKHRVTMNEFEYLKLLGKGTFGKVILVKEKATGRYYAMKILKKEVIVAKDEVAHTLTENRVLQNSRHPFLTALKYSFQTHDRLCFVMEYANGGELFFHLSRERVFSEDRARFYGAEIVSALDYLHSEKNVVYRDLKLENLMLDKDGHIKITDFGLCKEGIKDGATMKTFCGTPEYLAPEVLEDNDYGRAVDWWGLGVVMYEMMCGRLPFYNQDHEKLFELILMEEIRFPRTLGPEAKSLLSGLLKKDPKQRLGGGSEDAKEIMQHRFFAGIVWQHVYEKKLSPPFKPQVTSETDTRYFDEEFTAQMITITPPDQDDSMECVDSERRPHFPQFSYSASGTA
T2 sequence (Q12809 whole entry): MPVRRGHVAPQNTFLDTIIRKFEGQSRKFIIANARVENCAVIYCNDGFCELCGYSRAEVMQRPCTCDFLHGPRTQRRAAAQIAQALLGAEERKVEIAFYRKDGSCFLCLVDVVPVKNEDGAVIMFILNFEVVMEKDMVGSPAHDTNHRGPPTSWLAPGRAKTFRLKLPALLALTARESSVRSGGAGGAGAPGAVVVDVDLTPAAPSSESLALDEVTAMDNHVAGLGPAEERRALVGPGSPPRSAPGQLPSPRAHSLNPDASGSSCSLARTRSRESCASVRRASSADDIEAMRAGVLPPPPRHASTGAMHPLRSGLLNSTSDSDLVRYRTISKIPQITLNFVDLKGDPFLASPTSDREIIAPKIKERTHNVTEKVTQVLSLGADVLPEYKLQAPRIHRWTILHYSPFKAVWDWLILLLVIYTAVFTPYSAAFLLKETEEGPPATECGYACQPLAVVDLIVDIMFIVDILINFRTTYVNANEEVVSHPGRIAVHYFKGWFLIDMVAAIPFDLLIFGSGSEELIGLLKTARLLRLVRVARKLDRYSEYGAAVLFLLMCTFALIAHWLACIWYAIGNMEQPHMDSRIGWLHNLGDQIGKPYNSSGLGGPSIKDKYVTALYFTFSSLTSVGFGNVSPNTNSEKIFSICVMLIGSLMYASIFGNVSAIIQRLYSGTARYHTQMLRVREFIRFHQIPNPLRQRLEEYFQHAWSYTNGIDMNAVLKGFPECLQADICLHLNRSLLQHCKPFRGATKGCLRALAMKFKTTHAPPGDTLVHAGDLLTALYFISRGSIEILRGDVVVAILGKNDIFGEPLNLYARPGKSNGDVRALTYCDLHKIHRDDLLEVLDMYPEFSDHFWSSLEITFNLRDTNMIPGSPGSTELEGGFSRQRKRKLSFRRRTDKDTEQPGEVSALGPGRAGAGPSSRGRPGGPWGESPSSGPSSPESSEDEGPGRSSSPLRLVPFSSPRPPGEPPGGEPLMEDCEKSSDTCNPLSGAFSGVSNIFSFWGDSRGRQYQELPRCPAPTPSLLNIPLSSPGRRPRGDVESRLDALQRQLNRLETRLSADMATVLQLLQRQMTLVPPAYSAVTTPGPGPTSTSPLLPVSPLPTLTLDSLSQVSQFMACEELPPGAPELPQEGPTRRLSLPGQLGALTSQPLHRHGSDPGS
Chain of Akt2 (P31751 whole entry): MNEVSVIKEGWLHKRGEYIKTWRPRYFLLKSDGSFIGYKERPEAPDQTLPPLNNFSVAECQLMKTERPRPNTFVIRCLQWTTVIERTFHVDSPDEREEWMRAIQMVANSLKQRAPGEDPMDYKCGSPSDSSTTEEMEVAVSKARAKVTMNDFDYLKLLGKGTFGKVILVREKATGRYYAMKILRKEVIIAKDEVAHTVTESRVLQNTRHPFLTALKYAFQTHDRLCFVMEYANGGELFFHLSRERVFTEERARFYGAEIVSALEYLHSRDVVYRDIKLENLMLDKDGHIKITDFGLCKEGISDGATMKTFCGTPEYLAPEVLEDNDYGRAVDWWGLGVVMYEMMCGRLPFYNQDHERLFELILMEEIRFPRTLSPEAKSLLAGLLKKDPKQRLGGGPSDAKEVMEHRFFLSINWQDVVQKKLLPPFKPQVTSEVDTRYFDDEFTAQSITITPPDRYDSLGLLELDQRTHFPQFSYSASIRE

| IC50 [1] | IC50 [2] | Kinase selectivity: (Akt3 inhibitory activity IC50)/(Akt1 inhibitory activity IC50) [3] | IC50 [4] | Kinase selectivity: (PKA inhibitory activity IC50)/(Akt1 inhibitory activity IC50) [5] | Kinase selectivity: (Akt2 inhibitory activity IC50)/(Akt1 inhibitory activity IC50) [6] | Kinase selectivity: (PKC inhibitory activity IC50)/(Akt1 inhibitory activity IC50) [7] | SMILES | hERG (Inhibition rate at 3 μM concentration) [8] |
| --- | --- | --- | --- | --- | --- | --- | --- | --- |
| 0.05 µM | 0.01 to 0.05 µM | 4.1-times | 0.21 µM | 1.3-times | 5.5-times |  | Cn1nccc1-c1cc(F)c(C(=O)N[C@@H]2CNCC[C@H]2c2ccc(F)c(F)c2)c(F)c1 [VII-12] |  |
|  |  |  |  | 1.2-times |  | 28-times | Cn1ncc(Cl)c1-c1cc(C(=O)N[C@H](CN)Cc2ccc(F)c(F)c2)oc1Cl [GSK2141795, reference compound] | 50% |
